In test [1] the test system is Canis familiaris. The test can be described thus: Percent change in heart rate in anesthetized dog. The test is classed as functional, Canis lupus familiaris.
For test [2], the species on record is Felis catus. Briefly: Response ratio = (percent increase to drug)/(percent increase to 10 E-4 M isoproterenol). The test is classed as functional.
The species entered for test [3] is Felis catus. Briefly: Compound tested for contractility in isolated cat papillary muscle at 10 e-4 M. The format is functional.
In test [4] the test system is Canis familiaris. Briefly: Percent change in mean arterial blood pressure in anesthetized dog. The format is functional, Canis lupus familiaris.
The species named for test [5] is Felis catus. The test can be described thus: Response ratio = (percent increase to drug)/(percent increase to 10 E-5 M isoproterenol). The format is functional.
The species named for test [6] is Felis catus. Briefly: Compound tested for contractility in isolated cat papillary muscle at 10 e-5 M. The test is classed as functional.
Test [7] deals with Canis familiaris. The test can be described thus: Compound tested for contractility in anesthetized dog when administered intravenously. The format is functional. Conditions: Canis lupus familiaris, iv.

Results on 32 compounds are retold here after ChEMBL document CHEMBL1123114, “Structure-activity relationships of arylimidazopyridine cardiotonics: discovery and inotropic activity of 2-[2-methoxy-4-(methylsulfinyl)phenyl]-1H-imidazo[4,5-c]pyridine” (1985).

Usually ED50 stands for the midpoint of the dose-response relation. Read a high ED50 as weaker potency. Consider `COc1ccc(-c2nc3cc[nH]cc-3n2)cc1`, for which the Change in the test on Canis familiaris [1] was 17%; in the test on Canis familiaris [4], -14%. Besides, the Response ratio came out at 1.46 in the test listed under Felis catus [2] and 0.07 in the test listed under Felis catus [5]. The figures for the Control in the test filed under Felis catus [3] and in the test filed under Felis catus [6] were 205% and 104%, respectively. For the same compound, it took a dose of 1.7 mg/kg to reach the 50% effect level with Canis familiaris [7] (ED50).
In the case of `COc1cc([S+](C)[O-])ccc1-c1nc2c[nH]cnc-2n1` (stereo not drawn), the Change with Canis familiaris [1] turned out to be 8%; with Canis familiaris [4], 14%. Further, the Response ratio amounted to 0.58 in the test filed under Felis catus [2] and 0.21 in the test filed under Felis catus [5]. Moreover, the Control in the test listed under Felis catus [3] stood at 142%; in the test filed under Felis catus [6], 115%. The ED50 in the test on Canis familiaris [7] is 0.6 mg/kg.
As for `COc1cc(OS(C)(=O)=O)ccc1-c1nc2cc[nH]cc-2n1`, the results for the Change in the test on Canis familiaris [1] and in the test with Canis familiaris [4] were 17% and -25%, respectively. Also, the results for the Response ratio in the test filed under Felis catus [2] and in the test filed under Felis catus [5] were 3.13 and 1.94, respectively. In addition, the Control in the test listed under Felis catus [3] came out at 326%; in the test listed under Felis catus [6], 240%. It took a dose of 0.006 mg/kg to reach the 50% effect level with Canis familiaris [7] (ED50).
On to `CSc1ccc(-c2nc3ccc[nH]c-3n2)cc1`, for which the Change was 27% with Canis familiaris [1] and -7% in the test on Canis familiaris [4]. This compound came in with an ED50 with Canis familiaris [7] of 1.9 mg/kg.
As to `CCCCCOc1cc(OC)ccc1-c1nc2cc[nH]cc-2n1`, the Response ratio in the test listed under Felis catus [2] is recorded as -0.26; in the test filed under Felis catus [5], 0.07. Further, the Control in the test listed under Felis catus [3] amounted to 81%; in the test listed under Felis catus [6], 105%.
For `COc1c(C)cc(-c2nc3cc[nH]cc-3n2)cc1C` the same measures were 1.57, 0.29, 213% and 121%.
Regarding `CC[S+]([O-])c1ccc(-c2nc3cc[nH]cc-3n2)c(OC)c1` (stereo not drawn), the Response ratio in the test filed under Felis catus [2] turned out to be 1; in the test listed under Felis catus [5] it was 0.5. Also, the Control is given as 170% in the test listed under Felis catus [3] and 136% in the test filed under Felis catus [6].
As to `CCCOc1cc(SC)ccc1-c1nc2cc[nH]cc-2n1`, the figures for the Change in the test on Canis familiaris [1] and in the test with Canis familiaris [4] were -3% and -62%, respectively. The compound further yielded an ED50 in the test with Canis familiaris [7] of 1.2 mg/kg.
Turning to `COc1ccc(OC)c(-c2nc3cc[nH]cc-3n2)c1`, the Response ratio in the test listed under Felis catus [2] turned out to be 0.96; in the test filed under Felis catus [5], 0.14. For the same compound, the Control in the test listed under Felis catus [3] is 169%; in the test listed under Felis catus [6], 110%.
Turning to `CS(=O)(=O)c1ccc(-c2nc3ccc[nH]c-3n2)cc1`, the Change is listed as 8% with Canis familiaris [1] and -2% in the test with Canis familiaris [4]. Besides, the ED50 with Canis familiaris [7] stood at 18 mg/kg.
For `CCCSc1ccc(-c2nc3cc[nH]cc-3n2)c(OC)c1`, the figures for the Response ratio in the test listed under Felis catus [2] and in the test listed under Felis catus [5] were 0.54 and 0.35, respectively. Also, the Control was found to be 139% in the test listed under Felis catus [3] and 125% in the test listed under Felis catus [6].
With `Fc1ccccc1-c1nc2cc[nH]cc-2n1`, the Response ratio in the test listed under Felis catus [2] was 0.63; in the test listed under Felis catus [5] it was 0.1. Also, the Control turned out to be 145% in the test listed under Felis catus [3] and 107% in the test filed under Felis catus [6].
For `COc1cccc(-c2nc3cc[nH]cc-3n2)c1OC` the same measures were -0.14, 0.03, 90% and 102%.
With `COc1cc(Br)ccc1-c1nc2cc[nH]cc-2n1`, the Response ratio in the test listed under Felis catus [2] was determined as 1.04; in the test filed under Felis catus [5], 0.47. In addition, the values for the Control in the test filed under Felis catus [3] and in the test filed under Felis catus [6] were 175% and 134%, respectively.
For the compound `CCCCOc1cc(OC)ccc1-c1nc2cc[nH]cc-2n1`, the results for the Response ratio in the test listed under Felis catus [2] and in the test listed under Felis catus [5] were 0.55 and 0, respectively. Besides, the Control is on record as 140% in the test listed under Felis catus [3] and 100% in the test listed under Felis catus [6].
For `Cc1ccc(-c2nc3cc[nH]cc-3n2)cc1` the same measures were 0.96, -0.04, 196% and 97%.
For `COc1cc(N(C)C)ccc1-c1nc2cc[nH]cc-2n1` the same measures were 0.9, 0.03, 165% and 102%.
For `COc1cc(I)ccc1-c1nc2cc[nH]cc-2n1` the same measures were 0.82, 0.54, 159% and 139%.
In the case of `c1ccc(Sc2ccc(-c3nc4cc[nH]cc-4n3)cc2)cc1`, the Response ratio in the test filed under Felis catus [2] amounted to 0.33; in the test filed under Felis catus [5], 0.31. The figures for the Control in the test filed under Felis catus [3] and in the test filed under Felis catus [6] were 124% and 122%, respectively.
Consider `COc1cc(-c2nc3cc[nH]cc-3n2)cc(OC)c1OC`, for which the Response ratio in the test listed under Felis catus [2] came out at 0.71; in the test listed under Felis catus [5] it was 0.12. The Control is given as 151% in the test filed under Felis catus [3] and 109% in the test listed under Felis catus [6].
Take `c1ccc(-c2nc3ccccc3[nH]2)cc1`: the Response ratio in the test listed under Felis catus [2] came to 0.47; in the test filed under Felis catus [5] it was 0.07. Besides, the Control in the test listed under Felis catus [3] is on record as 134%; in the test filed under Felis catus [6] it was 105%.
In the case of `CCOc1cc(SC)ccc1-c1nc2cc[nH]cc-2n1`, the results for the Response ratio in the test filed under Felis catus [2] and in the test filed under Felis catus [5] were 0.68 and 0.3, respectively. For the same compound, the Control in the test listed under Felis catus [3] came to 149%; in the test listed under Felis catus [6] it was 122%.
For `CCSc1ccc(-c2nc3cc[nH]cc-3n2)c(OC)c1` the same measures were 1.33, 0.5, 196% and 136%.
With `Fc1cccc(-c2nc3cc[nH]cc-3n2)c1`, the figures for the Response ratio in the test filed under Felis catus [2] and in the test listed under Felis catus [5] were 0.79 and 0.17, respectively. Besides, the results for the Control in the test listed under Felis catus [3] and in the test filed under Felis catus [6] were 157% and 112%, respectively.
For the compound `COc1cc(OC)c(-c2nc3cc[nH]cc-3n2)cc1OC`, the Response ratio in the test filed under Felis catus [2] came to 0.4; in the test listed under Felis catus [5], 0.12. The Control was 129% in the test filed under Felis catus [3] and 108% in the test filed under Felis catus [6].
For `Clc1cc(Cl)cc(-c2nc3cc[nH]cc-3n2)c1` the same measures were 0.64, 0.21, 146% and 115%.
Turning to `Cc1cccc(-c2nc3ccc[nH]c-3n2)c1`, the Change is 18% with Canis familiaris [1] and -27% with Canis familiaris [4]. In addition, in the test with Canis familiaris [7], the 50% effective dose (ED50) was found to be 2.8 mg/kg.
For `COc1cccc(-c2nc3cc[nH]cc-3n2)c1`, the figures for the Response ratio in the test filed under Felis catus [2] and in the test filed under Felis catus [5] were 1.58 and 0.21, respectively. Also, the Control in the test filed under Felis catus [3] came to 214%; in the test listed under Felis catus [6], 115%.
For the compound `COc1ccc(-c2nc3cc[nH]cc-3n2)c(OCCSc2ccccc2)c1`, the Response ratio was determined as 0.12 in the test listed under Felis catus [2] and 0.04 in the test filed under Felis catus [5]. Further, the results for the Control in the test filed under Felis catus [3] and in the test filed under Felis catus [6] were 109% and 103%, respectively.
For `COc1ccc(-c2nc3cc[nH]cc-3n2)c(SC)c1` the same measures were 1.44, 0.19, 204% and 114%.
Regarding `COc1cc(SC)ccc1-c1nc2c[nH]cnc-2n1`, the Response ratio in the test filed under Felis catus [2] is on record as 0.43; in the test filed under Felis catus [5], 0.12. In addition, the results for the Control in the test listed under Felis catus [3] and in the test listed under Felis catus [6] were 131% and 109%, respectively.
For `CSc1ccc(-c2nc3cc[nH]cc-3n2)c(SC)c1`, the values for the Response ratio in the test listed under Felis catus [2] and in the test filed under Felis catus [5] were 0.84 and 0.18, respectively. The Control in the test listed under Felis catus [3] is 161%; in the test listed under Felis catus [6], 113%.
